Among the data in patent publication US10166218B2, “3-(1H-indol-2-yl)-1H-pyrazolo[3,4-C]pyridines and therapeutic uses thereof” (Samumed, LLC, priority 2015, dated 2019) are EC50 and Emax values, retold here.

The subject of test [1] is primary human mesenchymal stem cells (hMSCs). Nature of the test: Induction of chondrogenesis in primary human mesenchymal stem cells (chondrogenic nodules). It counts as cell-based. The settings on record: 144 h, 6 days; for EC50: concentration required to induce 50% levels of chondrogenesis of TGF-β3 positive control, read-out: Conc (nM) of 50% TGF-β3 activity; for Emax: nodules, relative to TGF-β3 (10 ng/mL) positive control, read-out: Max. Activity as % TGF-β3 activity. On the procedure: Representative compounds were screened using primary human mesenchymal stem cells (hMSCs) to determine their ability to induce chondrogenesis (process by which cartilage is developed).
Primary human mesenchymal stem cells (hMSCs) were purchased from Lonza (Walkersville, Md.) and expanded in Mesenchymal Stem Cell Growth Media (Lonza). Cells between passage 3 and 6 were used for the experiments.
Each compound was dissolved in DMSO as a 10 mM stock and used to prepare compound source plates. Serial dilution (1:3, 6-point dose-response curves from 2700 nM to 10 nM) and compound transfer was performed using the ECHO 550 (Labcyte, Sunnyvale, Calif.) into 96-well clear bottom assay plates (Greiner Bio-One) with appropriate DMSO backfill for a final DMSO concentration of 0.03%. hMSCs were plated at 20,000 cells/well in 250 μL/well Incomplete Chondrogenic Induction Medium (Lonza; DMEM, dexamethasone, ascorbate, insulin-transferrin-selenium [ITS supplement], gentamycin-amphotericin [GA-1000], sodium pyruvate, proline and L-glutamine). TGF-β3 (10 ng/mL) was used as a positive control for differentiation while negative control wells were treated with 75 nL DMSO for normalization and calculating EC50 values. Cells were incubated at 37° C. and 5% CO2 for 6 days. To image chondrogenic nodules, the cells were fixed using 4% formaldehyde (Electron Microscopy Sciences), and stained with 2 μg/mL Rhodamine B (Sigma-Aldrich) and 20 μM Nile Red (Sigma-Aldrich) [Johnson K., et. al, A Stem Cell-Based Approach to Cartilage Repair, Science, (2012), 336(6082), 717-721]. The nodules imaged (4 images per well at 4× magnification) by excitation at 531 nm and emission at 625 nm and quantified using the CellInsight CX5 (Thermo Scientific). Number of nodules in each well was normalized to the average of 3 DMSO treated wells on the same plate using Excel (Microsoft Inc.). The normalized averages (fold change over DMSO) of 3 replicate wells for each compound concentration were calculated. Due to solubility limitations of some of the compounds, curve fitting was incomplete leading to inaccurate EC50 determinations.
Using TGF-β3 as a positive control, the concentration of representative compounds required to induce 50% levels of chondrogenesis is reported. In addition, the maximum activity of each compound and the respective dose that each compound reached maximum chondrogenesis activity is reported.

Test [2] deals with Wnt activity (Sp5-Luc reporter, TCF/LEF binding sites) in SW480 colon carcinoma cells. Nature of the test: Screening assay for Wnt activity: Sp5-Luc reporter gene assay in stably transduced SW480 cells. It counts as cell-based. The settings on record: Homo sapiens, overnight incubation. An outline of the steps:
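Luminescence (BrightGlo) was normalised to DMSO-only wells and fitted with a four-parameter variable-slope model for EC50; beyond 10 μM, % inhibition at 10 μM is given. Stable Sp5-Luc SW480 reporter cells, 4,000/well in 1% FBS, were exposed overnight at 37 °C to compounds, top 10 μM, 1:3 dilutions, 0.1% DMSO.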
A general note: A reporter such as luciferase makes a cellular process visible.

pEC50: −log10 of the molar value.

On to `CC(C)C(=O)Nc1cncc(-c2cc3c(-c4cc5c(-c6cccnc6)cccc5[nH]4)n[nH]c3cn2)c1` [Compound 93, N-(5-(3-(4-(Pyridin-3-yl)-1H-indol-2-yl)-1H-pyrazolo[3,4-c]pyridin-5-yl)pyridin-3-yl)isobutyramide], for which, in test [1], the EC50 is 10 nM and the Emax came to 201%. The pEC50 – broadly, −log10 of the EC50, conventionally taken in molar units – in test [2] is 6.56.
For `O=C(Nc1cncc(-c2cc3c(-c4cc5c(-c6cccnc6)cccc5[nH]4)n[nH]c3cn2)c1)c1ccccc1` [Compound 95, N-(5-(3-(4-(Pyridin-3-yl)-1H-indol-2-yl)-1H-pyrazolo[3,4-c]pyridin-5-yl)pyridin-3-yl)benzamide] the same measures were 100 nM, 236% and 6.40.
With `c1cncc(-c2cccc3[nH]c(-c4n[nH]c5cnc(-c6cncc(CN7CCCC7)c6)cc45)cc23)c1` [Compound 98, 3-(4-(Pyridin-3-yl)-1H-indol-2-yl)-5-(5-(pyrrolidin-1-ylmethyl)pyridin-3-yl)-1H-pyrazolo[3,4-c]pyridine], the Emax in test [1] turned out to be 22%. In addition, in test [2], the pEC50 was 5.92.
For the molecule `O=C(Nc1cncc(-c2cc3c(-c4cc5c(-c6cccnc6)cccc5[nH]4)n[nH]c3cn2)c1)C1CC1` [Compound 104, N-(5-(3-(4-(Pyridin-3-yl)-1H-indol-2-yl)-1H-pyrazolo[3,4-c]pyridin-5-yl)pyridin-3-yl)cyclopropanecarboxamide], in test [1], the EC50 was determined as 100 nM and the Emax was 308%. This molecule also showed a pEC50 in test [2] of 6.47.
For `Nc1cncc(-c2cc3c(-c4cc5c(-c6ccccn6)cccc5[nH]4)n[nH]c3cn2)c1` [Compound 143, 5-(3-(4-(Pyridin-2-yl)-1H-indol-2-yl)-1H-pyrazolo[3,4-c]pyridin-5-yl) pyridin-3-amine] the same measures were 300 nM, 118% and 6.59.
For `Cc1ccncc1-c1cc2c(-c3cc4c(-c5ccccn5)cccc4[nH]3)n[nH]c2cn1` [Compound 145, 5-(4-Methylpyridin-3-yl)-3-(4-(pyridin-2-yl)-1H-indol-2-yl)-1H-pyrazolo [3,4-c]pyridine], in test [1], the EC50 worked out at 30 nM and the Emax was determined as 90%. This molecule also gave a pEC50 in test [2] of 6.25.
Regarding `CN(C)Cc1cncc(-c2cc3c(-c4cc5c(-c6ccccn6)cccc5[nH]4)n[nH]c3cn2)c1` [Compound 153, N,N-Dimethyl-1-(5-(3-(4-(pyridin-2-yl)-1H-indol-2-yl)-1H-pyrazolo[3,4-c]pyridin-5-yl)pyridin-3-yl)methanamine], in test [1], the EC50 amounted to 30 nM and the Emax was 75%. The pEC50 in test [2] was 6.15.
For `CCCCC(=O)Nc1cncc(-c2cc3c(-c4cc5c(-c6ccccn6)cccc5[nH]4)n[nH]c3cn2)c1` [Compound 159, N-(5-(3-(4-(Pyridin-2-yl)-1H-indol-2-yl)-1H-pyrazolo[3,4-c]pyridin-5-yl)pyridin-3-yl)pentanamide] the same measures were 900 nM, 84% and 5.46.
As for `CC(C)C(=O)Nc1cncc(-c2cc3c(-c4cc5c(N6CCN(C)CC6)cccc5[nH]4)n[nH]c3cn2)c1` [Compound 233], the Emax in test [1] was found to be 36%. In addition, the negative logarithm of the EC50 (pEC50) in test [2] was 6.15.
In the same order, the values of `O=C(Nc1cncc(-c2cc3c(-c4cc5ccccc5[nH]4)n[nH]c3cn2)c1)c1ccccc1` [Compound 263, N-(5-(3-(1H-Indol-2-yl)-1H-pyrazolo[3,4-c]pyridin-5-yl)pyridin-3-yl) benzamide] are 122% and 6.70.
For `c1ccc2[nH]c(-c3n[nH]c4cnc(-c5cncc(CN6CCCC6)c5)cc34)cc2c1` [Compound 266, 3-(1H-Indol-2-yl)-5-(5-(pyrrolidin-1-ylmethyl)pyridin-3-yl)-1H-pyrazolo [3,4-c]pyridine], in test [1], the Emax turned out to be 138%. For the same molecule, the pEC50 in test [2] is 6.41.
For `c1cc(-c2ccoc2)c2cc(-c3n[nH]c4cnc(-c5cncc(CN6CCCCC6)c5)cc34)[nH]c2c1` [Compound 323, 3-(4-(Furan-3-yl)-1H-indol-2-yl)-5-(5-(piperidin-1-ylmethyl)pyridin-3-yl)-1H-pyrazolo[3,4-c]pyridine] the same measures were 85% and 5.56.
Turning to `CN(C)CCNc1cc(F)cc(-c2cccc3[nH]c(-c4n[nH]c5cnc(-c6cncc(N)c6)cc45)cc23)c1` [Compound 451, N^1-(3-(2-(5-(5-Aminopyridin-3-yl)-1H-pyrazolo[3,4-c]pyridin-3-yl)-1H-indol-4-yl)-5-fluorophenyl)-N^2,N^2-dimethylethane-1,2-diamine], in test [1], the EC50 amounted to 100 nM and the Emax came to 180%. In test [2], this molecule gave a negative-log EC50 (pEC50) of 6.35.
Take `CCNCc1cncc(-c2cc3c(-c4cc5c(-c6cc(F)cc(NCCN(C)C)c6)cccc5[nH]4)n[nH]c3cn2)c1` [Compound 454, N^1-(3-(2-(5-(5-((Ethylamino)methyl)pyridin-3-yl)-1H-pyrazolo[3,4-c]pyridin-3-yl)-1H-indol-4-yl)-5-fluorophenyl)-N^2,N^2-dimethylethane-1,2-diamine]: in test [1], the EC50 worked out at 30 nM and the Emax amounted to 294%. Also, the pEC50 in test [2] is 5.90.
For `CN(C)CCNc1cc(F)cc(-c2cccc3[nH]c(-c4n[nH]c5cnc(-c6cncc(NC(=O)C(C)(C)C)c6)cc45)cc23)c1` [Compound 456, N-(5-(3-(4-(3-((2-(Dimethylamino)ethyl)amino)-5-fluorophenyl)-1H-indol-2-yl)-1H-pyrazolo[3,4-c]pyridin-5-yl)pyridin-3-yl)pivalamide] the same measures were 10 nM, 87% and 6.41.
For the molecule `CN(C)CCNc1cc(F)cc(-c2cccc3[nH]c(-c4n[nH]c5cnc(-c6cncc(CN(C)C)c6)cc45)cc23)c1` [Compound 461, N^1-(3-(2-(5-(5-((Dimethylamino)methyl)pyridin-3-yl)-1H-pyrazolo[3,4-c]pyridin-3-yl)-1H-indol-4-yl)-5-fluorophenyl)-N^2,N^2-dimethylethane-1,2-diamine], in test [1], the Emax amounted to 52%. The molecule also showed a pEC50 in test [2] of 5.88.
For `CN(C)CCNc1cc(F)cc(-c2cccc3[nH]c(-c4n[nH]c5cnc(-c6ccccn6)cc45)cc23)c1` [Compound 476, N^1-(3-Fluoro-5-(2-(5-(pyridin-2-yl)-1H-pyrazolo[3,4-c]pyridin-3-yl)-1H-indol-4-yl)phenyl)-N^2,N^2-dimethylethane-1,2-diamine], in test [1], the EC50 is 10 nM and the Emax worked out at 89%. The same molecule had a pEC50 in test [2] of 5.43.
For `Cc1ccncc1-c1cc2c(-c3cc4c(-c5cc(F)cc(CNS(C)(=O)=O)c5)cccc4[nH]3)n[nH]c2cn1` [Compound 481, N-(3-Fluoro-5-(2-(5-(4-methylpyridin-3-yl)-1H-pyrazolo[3,4-c]pyridin-3-yl)-1H-indol-4-yl)benzyl)methanesulfonamide] the same measures were 900 nM, 152% and 6.71.
For `CS(=O)(=O)NCc1cc(F)cc(-c2cccc3[nH]c(-c4n[nH]c5cnc(-c6cncnc6)cc45)cc23)c1` [Compound 503, N-(3-Fluoro-5-(2-(5-(pyrimidin-5-yl)-1H-pyrazolo[3,4-c]pyridin-3-yl)-1H-indol-4-yl)benzyl)methanesulfonamide] the same measures were 900 nM, 102% and 6.25.
With `CN(C)CCOc1cncc(-c2cc3c(-c4cc5c(-c6cccnc6)cccc5[nH]4)n[nH]c3cn2)c1` [Compound 591, N,N-Dimethyl-2-((5-(3-(4-(pyridin-3-yl)-1H-indol-2-yl)-1H-pyrazolo[3,4-c]pyridin-5-yl)pyridin-3-yl)oxy)ethan-1-amine], the Emax in test [1] came out at 36%. The same molecule showed a pEC50 in test [2] of 5.56.
As for `Cn1cc(-c2cc3c(-c4cc5c(-c6ccncc6)cccc5[nH]4)n[nH]c3cn2)cn1` [Compound 600, 5-(1-Methyl-1H-pyrazol-4-yl)-3-(4-(pyridin-4-yl)-1H-indol-2-yl)-1H-pyrazolo[3,4-c]pyridine], in test [1], the EC50 worked out at 300 nM and the Emax was 138%. The molecule also gave a negative logarithm of the EC50 (pEC50) in test [2] of 7.57.
